One block for each molecule: values may come before it.
Experiments:
[1] = target: T1, Protein fem-1 homolog B/Bromodomain-containing protein 4 (Homo sapiens, UniProt O60885+Q9UK73); experiment: PROTAC activity at FEM1B/BRD4 in HEK293T cells assessed as protein degradation; assay type: cell-based
[2] = target: T1, Protein fem-1 homolog B/Bromodomain-containing protein 4; experiment: PROTAC activity at FEM1B/BRD4 in HEK293T cells assessed as protein degradation relative to control; assay type: cell-based
[3] = target: Bromodomain-containing protein 4 (Homo sapiens, UniProt O60885); experiment: Inhibition of BRD4 in HEK293T cells; assay type: cell-based
[4] = target: RAC-beta serine/threonine-protein kinase (Homo sapiens, UniProt P31751); experiment: Inhibition of AKT2 (unknown origin)
Sequence of RAC-beta serine/threonine-protein kinase (P31751 whole entry): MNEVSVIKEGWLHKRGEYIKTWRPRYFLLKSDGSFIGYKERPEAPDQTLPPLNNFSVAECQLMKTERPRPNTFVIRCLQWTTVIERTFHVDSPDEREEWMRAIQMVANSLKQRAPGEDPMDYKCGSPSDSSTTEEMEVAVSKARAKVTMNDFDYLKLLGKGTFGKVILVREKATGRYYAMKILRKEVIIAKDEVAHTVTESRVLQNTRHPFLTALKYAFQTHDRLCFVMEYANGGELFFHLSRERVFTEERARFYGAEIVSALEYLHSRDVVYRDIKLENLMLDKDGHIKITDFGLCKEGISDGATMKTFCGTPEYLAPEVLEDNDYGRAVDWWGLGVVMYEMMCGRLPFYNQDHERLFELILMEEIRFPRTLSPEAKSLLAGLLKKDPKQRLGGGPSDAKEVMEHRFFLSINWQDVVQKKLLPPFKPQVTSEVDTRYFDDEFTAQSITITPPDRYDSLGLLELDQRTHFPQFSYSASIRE

[5] = target: RAC-gamma serine/threonine-protein kinase (Homo sapiens, UniProt Q9Y243); experiment: Inhibition of AKT3 (unknown origin)
SW-620 = experiment: Inhibition of cell growth in human SW620 cells; assay type: functional
[6] = target: RAC-alpha serine/threonine-protein kinase (Homo sapiens, UniProt P31749); experiment: Inhibition of AKT1 (unknown origin)
[7] = target: von Hippel-Lindau disease tumor suppressor/AKT (Homo sapiens, UniProt P31751+Q9Y243+P31749+P40337); experiment: PROTAC activity at VHL/AKT in human SW620 cells assessed as protein degradation; assay type: cell-based
[8] = target: von Hippel-Lindau disease tumor suppressor/GTPase KRas (Homo sapiens, UniProt P01116+P40337, G12C); experiment: PROTAC activity at VHL/KRAS G12C mutant in human NCI-H2030 cells assessed as protein degradation incubated for 24 hrs by Western blot analysis; assay type: cell-based
Sequence of von Hippel-Lindau disease tumor suppressor/GTPase KRas (P01116 whole entry G12C, stated change not applied): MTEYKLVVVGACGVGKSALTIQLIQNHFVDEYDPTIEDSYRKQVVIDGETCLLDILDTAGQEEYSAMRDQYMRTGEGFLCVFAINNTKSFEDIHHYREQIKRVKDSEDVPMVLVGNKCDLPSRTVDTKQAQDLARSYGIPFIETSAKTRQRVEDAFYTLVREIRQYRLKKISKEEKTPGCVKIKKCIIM
Sequence of von Hippel-Lindau disease tumor suppressor/GTPase KRas (P40337 whole entry, stated change not applied): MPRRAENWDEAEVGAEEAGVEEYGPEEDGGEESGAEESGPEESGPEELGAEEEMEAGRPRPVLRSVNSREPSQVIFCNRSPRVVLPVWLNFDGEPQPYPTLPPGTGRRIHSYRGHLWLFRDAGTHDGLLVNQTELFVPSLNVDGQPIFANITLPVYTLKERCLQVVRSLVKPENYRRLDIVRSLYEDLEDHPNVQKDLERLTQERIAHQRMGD

[9] = target: Protein cereblon/Focal adhesion kinase 1 (Homo sapiens) (UniProt Q05397+Q96SW2); experiment: PROTAC activity at CRBN/FAK in human A549 cells assessed as protein degradation at 10 nM incubated for 12 hrs by Western blot analysis relative to control; assay type: cell-based
Focal adhesion kinase 1 = Focal adhesion kinase 1 (Homo sapiens, UniProt Q05397); experiment: Inhibition of FAK (unknown origin) incubated for 50 mins in presence of substrate/ATP by HTRF assay
Sequence of Focal adhesion kinase 1 (Q05397 whole entry): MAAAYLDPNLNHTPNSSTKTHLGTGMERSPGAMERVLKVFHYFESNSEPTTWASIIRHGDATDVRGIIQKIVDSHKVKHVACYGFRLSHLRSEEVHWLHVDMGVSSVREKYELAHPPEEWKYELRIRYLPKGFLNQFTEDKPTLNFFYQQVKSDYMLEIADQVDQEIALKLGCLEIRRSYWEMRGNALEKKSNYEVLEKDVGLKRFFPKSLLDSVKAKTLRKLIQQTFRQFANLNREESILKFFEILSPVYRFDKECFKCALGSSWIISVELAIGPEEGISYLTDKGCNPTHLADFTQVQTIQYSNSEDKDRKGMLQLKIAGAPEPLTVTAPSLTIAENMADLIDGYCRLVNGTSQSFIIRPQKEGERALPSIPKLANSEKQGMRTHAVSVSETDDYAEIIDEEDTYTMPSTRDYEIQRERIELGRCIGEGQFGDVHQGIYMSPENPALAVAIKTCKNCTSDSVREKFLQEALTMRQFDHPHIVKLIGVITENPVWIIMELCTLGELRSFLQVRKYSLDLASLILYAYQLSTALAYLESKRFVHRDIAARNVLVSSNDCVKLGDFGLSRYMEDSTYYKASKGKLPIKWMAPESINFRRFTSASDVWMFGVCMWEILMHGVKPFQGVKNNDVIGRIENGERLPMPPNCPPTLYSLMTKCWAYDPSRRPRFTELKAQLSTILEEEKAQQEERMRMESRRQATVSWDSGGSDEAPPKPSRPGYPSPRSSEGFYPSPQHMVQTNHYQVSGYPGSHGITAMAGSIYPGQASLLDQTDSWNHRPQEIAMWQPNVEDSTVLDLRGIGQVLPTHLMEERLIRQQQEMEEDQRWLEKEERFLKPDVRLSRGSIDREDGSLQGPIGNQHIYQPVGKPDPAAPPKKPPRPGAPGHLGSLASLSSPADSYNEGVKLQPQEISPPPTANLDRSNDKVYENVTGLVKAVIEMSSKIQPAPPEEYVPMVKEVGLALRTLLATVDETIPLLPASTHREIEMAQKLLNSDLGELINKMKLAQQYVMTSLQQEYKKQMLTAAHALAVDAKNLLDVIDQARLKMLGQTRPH

[10] = Stability in human plasma assessed as half life at 2 uM incubated for 120 mins by LC-MS/MS analysis; assay type: ADME, cell-free
[11] = target: von Hippel-Lindau disease tumor suppressor/Epidermal growth factor receptor (Homo sapiens, UniProt P00533+P40337); experiment: PROTAC activity at VHL/EGFR del19 mutant in human HCC827 cells assessed as protein degradation; assay type: cell-based
[12] = target: T2, Epidermal growth factor receptor (Homo sapiens, UniProt P00533); experiment: Inhibition of wild-type EGFR in human A549 cells; assay type: cell-based
T2 sequence (P00533 whole entry): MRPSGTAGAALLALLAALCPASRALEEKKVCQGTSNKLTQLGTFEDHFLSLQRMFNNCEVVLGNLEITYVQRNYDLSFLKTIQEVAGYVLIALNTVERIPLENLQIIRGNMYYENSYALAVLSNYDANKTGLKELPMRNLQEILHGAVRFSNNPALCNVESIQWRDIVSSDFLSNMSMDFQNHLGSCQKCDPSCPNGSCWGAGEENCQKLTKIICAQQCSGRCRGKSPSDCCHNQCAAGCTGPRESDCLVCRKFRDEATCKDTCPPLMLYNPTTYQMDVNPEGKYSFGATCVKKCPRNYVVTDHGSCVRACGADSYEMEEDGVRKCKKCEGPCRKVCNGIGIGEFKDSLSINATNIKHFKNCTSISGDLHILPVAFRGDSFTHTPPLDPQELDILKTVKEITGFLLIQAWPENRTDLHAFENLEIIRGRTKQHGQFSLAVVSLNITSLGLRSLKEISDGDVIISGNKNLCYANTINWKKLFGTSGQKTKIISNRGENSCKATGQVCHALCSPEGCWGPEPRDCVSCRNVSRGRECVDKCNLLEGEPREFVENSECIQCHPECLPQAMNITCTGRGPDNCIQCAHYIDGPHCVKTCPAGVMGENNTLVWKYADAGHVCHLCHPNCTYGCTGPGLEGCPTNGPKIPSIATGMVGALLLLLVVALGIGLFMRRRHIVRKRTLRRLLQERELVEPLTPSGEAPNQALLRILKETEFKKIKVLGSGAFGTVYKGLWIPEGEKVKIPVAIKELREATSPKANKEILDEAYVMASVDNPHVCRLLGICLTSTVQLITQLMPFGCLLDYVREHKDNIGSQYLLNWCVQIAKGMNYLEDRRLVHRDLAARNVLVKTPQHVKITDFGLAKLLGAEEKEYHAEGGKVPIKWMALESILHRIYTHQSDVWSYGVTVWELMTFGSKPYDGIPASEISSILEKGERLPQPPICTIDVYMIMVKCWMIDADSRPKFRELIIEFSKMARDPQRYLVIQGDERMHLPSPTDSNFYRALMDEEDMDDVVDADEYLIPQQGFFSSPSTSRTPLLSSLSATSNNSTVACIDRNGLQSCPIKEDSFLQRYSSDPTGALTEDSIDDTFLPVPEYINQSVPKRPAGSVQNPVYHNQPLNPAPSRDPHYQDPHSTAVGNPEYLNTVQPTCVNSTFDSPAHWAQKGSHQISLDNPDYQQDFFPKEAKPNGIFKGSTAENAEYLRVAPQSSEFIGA

[13] = Inhibition of EGFR L858R/790M mutant in human NCI-H1975 cells; assay type: cell-based
[14] = test system: von Hippel-Lindau disease tumor suppressor/Epidermal growth factor receptor (Homo sapiens), P00533+P40337 [UNDEFINED MUTATION]; experiment: PROTAC activity at VHL/EGFR del19 mutant in human HCC827 cells assessed as protein degradation relative to control; assay type: cell-based
Sequence of von Hippel-Lindau disease tumor suppressor/Epidermal growth factor receptor (Homo sapiens), P00533+P40337 [UNDEFINED MUTATION] (P00533 whole entry, looked up, stated change not applied): as the sequence (P00533 whole entry) above
Sequence of von Hippel-Lindau disease tumor suppressor/Epidermal growth factor receptor (Homo sapiens), P00533+P40337 [UNDEFINED MUTATION] (P40337 whole entry, looked up, stated change not applied): as the sequence (P40337 whole entry, stated change not applied) above

[15] = Inhibition of EGFR del19 mutant in human HCC827 cells; assay type: cell-based
[16] = target: T2, Epidermal growth factor receptor; experiment: Inhibition of wild-type EGFR in human A-431 cells; assay type: cell-based
Cyclin-T1 = Cyclin-T1 (Homo sapiens, UniProt O60563); experiment: Induction of Cyclin T1 degradation in human 22Rv1 cells; assay type: cell-based
CWR22R = experiment: Inhibition of cell growth in human 22Rv1 cells; assay type: functional, cell-based
[17] = target: Cyclin-dependent kinase 9 (Homo sapiens, UniProt P50750); experiment: Induction of CDK9 degradation in human 22Rv1 cells; assay type: cell-based

T1 sequence (Q9UK73 whole entry, looked up, other chains not shown): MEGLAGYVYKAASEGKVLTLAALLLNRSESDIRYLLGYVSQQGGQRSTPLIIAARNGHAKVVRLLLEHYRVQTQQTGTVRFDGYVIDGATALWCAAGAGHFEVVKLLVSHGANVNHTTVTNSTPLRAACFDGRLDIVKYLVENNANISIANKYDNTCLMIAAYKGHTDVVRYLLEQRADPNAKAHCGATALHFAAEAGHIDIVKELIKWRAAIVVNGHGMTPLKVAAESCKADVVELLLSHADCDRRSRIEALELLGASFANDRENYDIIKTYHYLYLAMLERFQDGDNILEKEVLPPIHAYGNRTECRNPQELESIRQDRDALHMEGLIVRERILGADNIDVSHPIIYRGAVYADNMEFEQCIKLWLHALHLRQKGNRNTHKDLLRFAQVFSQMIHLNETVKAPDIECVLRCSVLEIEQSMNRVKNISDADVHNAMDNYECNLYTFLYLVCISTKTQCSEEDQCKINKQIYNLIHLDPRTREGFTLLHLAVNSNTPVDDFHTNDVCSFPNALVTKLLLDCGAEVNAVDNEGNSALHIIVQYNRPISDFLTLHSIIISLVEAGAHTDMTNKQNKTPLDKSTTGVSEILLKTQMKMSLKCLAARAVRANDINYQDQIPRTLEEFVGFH

SMILES: Cc1sc2c(c1C)C(c1ccc(Cl)cc1)=N[C@H](CC(=O)NCCCCCNC(=O)CN1CCOc3cc(N(CCC#N)C(=O)CCl)ccc31)c1nnc(C)n1-2
DC50 [1]: 250 nM
Emax [2]: 94%
IC50 [3]: 1400 nM

SMILES: C=C(F)C(=O)N1CCN(c2nc(OC[C@@H]3CCCN3CCCOCCC(=O)N[C@H](C(=O)N3CC(O)C[C@H]3C(=O)NCc3ccc(-c4scnc4C)cc3)C(C)(C)C)nc3c2CCN(c2cccc4cccc(Cl)c24)C3)C[C@@H]1CC#N (stereo partly specified)
DC50 [8]: 590 nM

SMILES: Cc1ncsc1-c1ccc(CNC(=O)C2CC(O)CN2C(=O)C(NC(=O)CCCCCCCCCCn2cc(COc3cc4ncnc(Nc5ccc(F)c(Cl)c5)c4cc3NC(=O)/C=C/CN3CCCCC3)nn2)C(C)(C)C)cc1 (stereo unspecified)
DC50 [11]: 3.57 nM
IC50 [12]: > 20000 nM
IC50 [13]: > 20000 nM
Emax [14]: 91%
IC50 [15]: 6 nM
IC50 [16]: > 20000 nM

SMILES: CC1CCC(C(C)C)C(OCC(=O)NCCS(=O)(=O)N2CCC(C(=O)Nc3ncc(SCc4ncc(C(C)(C)C)o4)s3)CC2)C1 (stereo unspecified)
DC50 (Cyclin-T1): 589 nM
IC50 (CWR22R): 95 nM
DC50 [17]: 62 nM

Results, then the molecule that gave them:

IC50 [4]: 90 nM
IC50 [5]: 544 nM
GI50 (SW-620): 3100 nM
IC50 [6]: 798 nM
DC50 [7]: 23 nM
SMILES: Cc1ncsc1-c1ccc(C(C)NC(=O)C2CC(O)CN2C(=O)C(NC(=O)CCCCCCCCCCNC(=O)CCc2cccc(-c3ccc4nc(-c5cccnc5N)n(-c5ccc(C6(N)CCC6)cc5)c4n3)c2)C(C)(C)C)cc1 (stereo unspecified)

Emax [9]: 85%
IC50 (Focal adhesion kinase 1): 26.4 nM
half-life at 2 µM [10]: > 3.25 h
SMILES: CN(c1ncccc1CNc1nc(Nc2ccc(N3CCN(CCCCCCC(=O)NCCNc4cccc5c4C(=O)N(C4CCC(=O)NC4=O)C5=O)CC3)cc2)ncc1C(F)(F)F)S(C)(=O)=O (stereo unspecified)

Source: ChEMBL document CHEMBL5512614, “Annual review of PROTAC degraders as anticancer agents in 2022” (Eur J Med Chem, 2024)
